Target: human PD-L1 / Human PD-1 (Homo sapiens (Human), UniProt Q9NZQ7)
Test: Enzyme-Linked Immunosorbent Assay (ELISA), PD-1/PD-L1 binding
Details: not given
Method: Plates were coated with 1 μg/mL of human PD-L1 (obtained from R&D) in PBS overnight at 4° C. The wells were then blocked with PBS containing 2% BSA in PBS (W/V) with 0.05% TWEEN-20 for 1 hour at 37° C. The plates were washed 3 times with PBS/0.05% TWEEN-20 and the samples were diluted to 1:5 in dilution medium in the ELISA plates. Human PD-1 and biotin 0.3 μg/mL (ACRO Biosystems) were added and incubated for 1 hour at 37° C. then washed 3 times with PBS/0.05% TWEEN-20. A second block was added with PBS containing 2% BSA in PBS (W/V)/0.05% TWEEN-20 for 10 min at 37° C. and was washed 3 times with PBS/0.05% TWEEN-20. Streptavidin-HRP was added for 1 hour at 37° C. then washed 3 times with PBS/0.05% TWEEN-20. TMB substrate was added and reacted for 20 min at 37° C. A stop solution (2 N aqueous H2SO4) was added. The absorbance was read at 450 nm using a micro-plate spectrophotometer.
Compounds in Table 2 and Table 3 were prepared by methods as described in the Examples, and evaluated according to the assay below.

human PD-L1 / Human PD-1, sequence (Q9NZQ7 19-239): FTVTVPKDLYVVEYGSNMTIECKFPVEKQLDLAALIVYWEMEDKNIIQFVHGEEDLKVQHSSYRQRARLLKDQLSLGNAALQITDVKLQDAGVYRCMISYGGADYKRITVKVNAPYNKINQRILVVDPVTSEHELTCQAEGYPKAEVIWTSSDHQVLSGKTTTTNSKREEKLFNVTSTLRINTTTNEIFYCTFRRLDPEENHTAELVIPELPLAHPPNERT

Compound	IC50
N#Cc1cncc(COc2cc(O[C@H]3CCc4c(-c5ccccc5F)cccc43)c(Cl)cc2CN2CCC(F)CC2)c1 [Example 2.094]	0.1 to 0.5 µM

Same assay, conditions: Table 2; plate-coated human PD-L1, biotinylated human PD-1; read-out: ELISA IC50

IC50	Compound
0.5 to 20 µM	CC(C)OC(=O)[C@@H](NCc1cc(Cl)c(O[C@H]2CCc3c(-c4ccccc4F)cccc32)cc1OCc1cncc(C#N)c1)[C@@H](C)O [Example 2.169]
0.1 to 0.5 µM	COc1cccc(-c2cccc3c2CC[C@@H]3Oc2cc(OCc3cncc(C#N)c3)c(CNCc3n[nH]c(=O)[nH]3)cc2Cl)c1F [Example 2.053]
0.1 to 0.5 µM	CC(C)C[C@H](NCc1cc(Cl)c(O[C@H]2CCc3c(-c4ccccc4F)cccc32)cc1OCc1cncc(C#N)c1)C(=O)O [Example 2.092]
0.1 to 0.5 µM	N#Cc1cncc(COc2cc(O[C@H]3CCc4c(-c5ccc(F)cc5)cccc43)c(Cl)cc2CN[C@@H](CO)C(=O)O)c1 [Example 2.008]
< 0.1 µM	CCOc1cc(O[C@H]2CCc3c(-c4cccc(OC)c4F)cccc32)c(Cl)cc1CN[C@@H](CO)C(=O)O [Example 2.048]
0.5 to 20 µM	COc1cc(O[C@H]2CCc3c(-c4ccc5c(c4)OCCO5)cccc32)c(Cl)cc1CN1CC(O)C1 [Example 2.042]
0.5 to 20 µM	N#Cc1cncc(COc2cc(O[C@H]3CCc4c(-c5ccccc5F)cccc43)c(Cl)cc2CNC23CC(C2)C3)c1 [Example 2.017]
< 0.1 µM	Cc1ccccc1-c1cccc2c1CC[C@@H]2Oc1cc(OCc2cncc(C#N)c2)c(CN[C@@H](CO)C(=O)O)cc1Cl [Example 2.006]
0.5 to 20 µM	COc1cccc(-c2cccc3c2CC(C)C3Oc2cc(OCc3cncc(C#N)c3)c(CN[C@@H](CO)C(=O)O)cc2Cl)c1F (some centres unmarked) [Example 2.049]
< 0.1 µM	CN(C)Cc1cc(Cl)c(O[C@H]2CCc3c(-c4ccccc4F)cccc32)cc1OCc1cncc(C#N)c1 [Example 2.031]
0.5 to 20 µM	COc1cccc(-c2cccc3c2CC[C@@H]3Oc2cc(OCc3cncc(C#N)c3)c(CN3CCOCC3)cc2Cl)c1Cl [Example 2.082]
0.5 to 20 µM	Cc1cc(-c2cccc3c2CC[C@@H]3Oc2cc(OCc3cncc(C#N)c3)c(CN[C@@H](CO)C(=O)O)cc2Cl)ccc1N(C)C [Example 2.026]
< 0.1 µM	N#Cc1cncc(COc2cc(O[C@H]3CCc4c(-c5ccccc5)cccc43)c(Cl)cc2CN[C@@H](CO)C(=O)O)c1 [Example 2.002]
0.1 to 0.5 µM	CCOc1cc(O[C@H]2CCc3c(-c4ccccc4F)cccc32)c(Cl)cc1CN[C@@H](C)C(=O)O [Example 2.153]
< 0.1 µM	N#Cc1cncc(COc2cc(O[C@H]3CCc4c(-c5ccccc5F)cccc43)c(Cl)cc2CN2CCC(O)CC2)c1 [Example 2.029]
0.5 to 20 µM	N#Cc1cncc(COc2cc(O[C@H]3CCc4c(-c5ccccc5F)cccc43)c(Cl)cc2CN2CC(F)C2)c1 [Example 2.120]
< 0.1 µM	N#Cc1cncc(COc2cc(O[C@H]3CCc4c(-c5ccccc5)cccc43)c(Cl)cc2CNC[C@@H](O)CC(=O)O)c1 [Example 1.009]
< 0.1 µM	N#Cc1cncc(COc2cc(O[C@H]3CCc4c(-c5ccc6c(c5Cl)OCCO6)cccc43)c(Cl)cc2CN[C@@H](CO)C(=O)O)c1 [Example 2.161]
< 0.1 µM	CCOc1cc(O[C@H]2CCc3c(-c4ccc5c(c4F)OCCO5)cccc32)c(Cl)cc1CN[C@@H](CO)C(=O)O [Example 2.056]
0.1 to 0.5 µM	Cc1cccc(-c2cccc3c2CC[C@@H]3Oc2cc(OCc3cncc(C#N)c3)c(CN3CC(O)C3)cc2Cl)c1F [Example 2.076]
0.1 to 0.5 µM	N#Cc1cncc(COc2cc(O[C@H]3CCc4c(-c5ccccc5F)cccc43)c(Cl)cc2CN2CC[C@H](O)C2)c1 [Example 2.020]
< 0.1 µM	O=C(O)[C@H](CO)NCc1cc(Cl)c(O[C@H]2CCc3c(-c4ccccc4F)cccc32)cc1OCc1cnc(Cl)nc1 [Example 2.084]
0.5 to 20 µM	N#Cc1cncc(COc2cc(O[C@H]3CCc4c(-c5cccc(OC(F)(F)F)c5F)cccc43)c(Cl)cc2CN[C@@H](CO)C(=O)O)c1 [Example 2.069]
0.5 to 20 µM	N#Cc1cncc(COc2cc(O[C@@H]3c4cccc(-c5ccccc5F)c4C[C@H]3F)c(Cl)cc2CN2CCC(O)CC2)c1 [Example 2.148]
0.1 to 0.5 µM	N#Cc1cncc(COc2cc(O[C@H]3CCc4c(-c5ccccc5F)cccc43)c(Cl)cc2CN[C@@H](CO)C(N)=O)c1 [Example 2.167]
0.1 to 0.5 µM	COc1cccc(-c2cccc3c2CC[C@@H]3Oc2cc(OCc3cncc(C#N)c3)c(CN3CCC(CO)CC3)cc2Cl)c1Cl [Example 2.081]
< 0.1 µM	N#Cc1cncc(COc2cc(O[C@H]3CCc4c(-c5ccccc5F)cccc43)c(Cl)cc2CN[C@@H](CC(N)=O)C(=O)O)c1 [Example 2.118]
< 0.1 µM	CCOc1cc(O[C@H]2CCc3c(-c4ccccc4F)cccc32)c(Cl)cc1CN[C@@H](CO)C(=O)O [Example 2.036]
< 0.1 µM	COc1cccc(-c2cccc3c2CC[C@@H]3Oc2cc(OCc3cncc(C#N)c3)c(CN[C@@H](CO)C(=O)O)cc2Cl)c1Cl [Example 2.043]
< 0.1 µM	CC(CO)(NCc1cc(Cl)c(O[C@H]2CCc3c(-c4ccccc4F)cccc32)cc1OCc1cncc(C#N)c1)C(=O)O (some centres unmarked) [Example 2.152]

Compound	IC50
N#Cc1cncc(COc2cc(OC3CCc4c(-c5ccccc5)cccc43)c(Cl)cc2CNCc2nnn[nH]2)c1 (centres unmarked) [Example 1.003]	< 0.1 µM
N#Cc1cncc(COc2cc(O[C@H]3CCc4c(-c5ccccc5F)cccc43)c(Cl)cc2CN2CCC(F)CC2)c1 [Example 2.093]	0.5 to 20 µM

Same assay, conditions: Table 3; plate-coated human PD-L1, biotinylated human PD-1; read-out: ELISA IC50

IC50	Compound
0.5 to 20 µM	N#Cc1cncc(COc2cc(O[C@H]3CCc4c(-c5ccc6c(c5F)OCCO6)cccc43)c(Cl)cc2CN[C@H]2CONC2=O)c1 [Example 3.042]
< 0.1 µM	N#Cc1cncc(COc2cc(O[C@H]3CCc4c(-c5ccc6c(c5F)OCCO6)cccc43)c(Cl)cc2CN[C@@H]2CCC[C@H]2O)c1 [Example 3.033]
0.1 to 0.5 µM	N#Cc1cncc(COc2cc(O[C@H]3CCc4c(-c5ccccc5F)cccc43)c(Cl)cc2CNCCN2CCCCC2CO)c1 (some centres unmarked) [Example 3.077]
< 0.1 µM	N#Cc1cncc(COc2cc(O[C@H]3CCc4c(-c5cc(F)c6c(c5)OCCO6)cccc43)c(Cl)cc2CN[C@@H](CO)C(=O)O)c1 [Example 3.017]
0.1 to 0.5 µM	CCOc1cc(NC2CCc3c(-c4ccccc4F)cccc32)c(Cl)cc1CN[C@@H](CO)C(=O)O (some centres unmarked) [Example 3.133]
0.1 to 0.5 µM	Cn1nnc(-c2cncc(COc3cc(O[C@H]4CCc5c(-c6ccccc6F)cccc54)c(Cl)cc3CN[C@@H](CO)C(=O)O)c2)n1 [Example 3.101]
< 0.1 µM	N#Cc1cncc(COc2cc(O[C@H]3CCc4c(-c5ccccc5F)cccc43)c(Cl)cc2CN[C@H]2CC[C@H](O)CC2)c1 [Example 3.068]
< 0.1 µM	C[C@@](CO)(NCc1cc(Cl)c(O[C@H]2CCc3c(-c4ccc5c(c4F)OCCO5)cccc32)cc1OCc1cncc(C#N)c1)C(=O)O [Example 3.009]
< 0.1 µM	CC(NCc1cc(Cl)c(O[C@H]2CCc3c(-c4ccccc4F)cccc32)cc1OCc1cncc(C#N)c1)C(=O)NC(CO)C(=O)O (some centres unmarked) [Example 3.095]
< 0.1 µM	N#Cc1cc(C#N)cc(COc2cc(O[C@H]3CCc4c(-c5ccc6c(c5F)OCCO6)cccc43)c(Cl)cc2CN[C@@H](CO)C(=O)O)c1 [Example 3.006]
0.5 to 20 µM	C[C@@H](O)[C@@H](CC(=O)O)NCc1cc(Cl)c(O[C@H]2CCc3c(-c4ccccc4F)cccc32)cc1OCc1cncc(C#N)c1 [Example 3.116]
< 0.1 µM	N#Cc1cncc(COc2cc(O[C@H]3CCc4c(-c5cccc(O)c5)cccc43)c(Cl)cc2CN[C@@H](CO)C(=O)O)c1 [Example 3.118]
0.5 to 20 µM	CC(N[C@@H](CO)C(=O)O)c1cc(Cl)c(O[C@H]2CCc3c(-c4cccc5c4OCCO5)cccc32)cc1OCc1cncc(C#N)c1 (some centres unmarked) [Example 3.113]
< 0.1 µM	C[C@H](NCc1cc(Cl)c(O[C@H]2CCc3c(-c4ccccc4F)cccc32)cc1OCc1cncc(C#N)c1)C(=O)N[C@@H](CO)C(=O)O [Example 3.047]
< 0.1 µM	N#Cc1cncc(COc2cc(O[C@H]3CCc4c(-c5ccccc5F)cccc43)c(Cl)cc2CN[C@H]2CCC[C@@H]2O)c1 [Example 3.019]
0.5 to 20 µM	C[C@@H](O)[C@@H](CC(=O)O)NCc1cc(Cl)c(O[C@@H]2CCc3c(-c4ccccc4F)cccc32)cc1OCc1cncc(C#N)c1 [Example 3.064]
0.5 to 20 µM	O=C(O)[C@H](CO)NCc1cc(Cl)c(O[C@H]2CCc3c(-c4ccc5c(c4F)OCCO5)cccc32)cc1OCc1cc(F)cc(Cl)c1 [Example 3.013]
0.1 to 0.5 µM	Cc1n[nH]c(C)c1CNCc1cc(Cl)c(O[C@H]2CCc3c(-c4ccccc4F)cccc32)cc1OCc1cncc(C#N)c1 [Example 3.082]
0.1 to 0.5 µM	COc1cccc(-c2cccc3c2CC[C@@H]3Oc2cc(OCc3cncc(C#N)c3)c(CN3CCC(O)C(CO)C3)cc2Cl)c1Cl (some centres unmarked) [Example 3.124]
< 0.1 µM	N#Cc1cc(Br)cc(COc2cc(O[C@H]3CCc4c(-c5ccccc5F)cccc43)c(Cl)cc2CN[C@@H](CO)C(=O)O)c1 [Example 3.063]
< 0.1 µM	N#Cc1cncc(COc2cc(O[C@H]3CCc4c(-c5cc6c(cc5F)OCCO6)cccc43)c(Cl)cc2CN[C@H](O)CO)c1 [Example 3.007]
< 0.1 µM	N#Cc1cncc(COc2cc(O[C@H]3CCc4c(C5=CCCCC5)cccc43)c(Cl)cc2CN[C@@H](CO)C(=O)O)c1 [Example 3.117]
0.5 to 20 µM	N#Cc1cncc(COc2cc(O[C@H]3CCc4c(-c5ccccc5F)cccc43)c(Cl)cc2CN2C[C@H](O)[C@@H](O)[C@H](O)[C@H]2CO)c1 [Example 3.073]

Reference: US10639284B2, “Immunomodulator compounds” (CHEMOCENTRYX, INC., priority 2016, dated 2020)
